What was measured:
[1] = (maximum) solubility in aqueous solution with α- or β-cyclodextrin, isocratic HPLC; type: physicochemical; conditions: aqueous solution and aqueous solutions containing α- or β-cyclodextrin
Description: The concentration was determined by isocratic HPLC analysis. HPLC column LiChroCART 75×4 mm, Superspher 60 RP-select B 5 μm (Merck), column temperature: 30° C., mobile phase: water/acetonitrile/methane sulfonic acid (65/35/0.05 v/v/v), flow rate: 2 mL/min, injection volume: 50 μl, detection at 220 nm, retention time approx. 1.5 min. The concentration was determined by use of an external reference solution with known concentration.

[2] = comparative storage test in aqueous rotigotine solution with/without α-cyclodextrin; type: physicochemical; conditions: solution of 1.6 mg/ml with α-cyclodextrin, storage at 60° C. for 8 weeks
Text: The stabilizing effect of α-cyclodextrin becomes also apparent from a comparative test in an aqueous rotigotine solution.

[3] = in-vitro permeation assay through nasal mucosa; type: in vitro ADME, cattle
Text: The intranasal formulation according to the present invention may preferably further contain a viscosity-enhancing substance. Glycerol and carboxymethylcellulose (CMC) are particularly useful as viscosity enhancers, but the present invention is not limited thereto. Glycerol is particularly preferred as it also has a soothing effect on the nasal mucosa. The viscosity of the intranasal formulations of the present invention should preferably be between 0.8 and 1.5 mm^2/s, most preferably around 1.2 mm^2/s. The viscosity can be determined by an Ubbelohde capillary viscosimeter with suspending ball-level for the determination of kinematic viscosity according to DIN 51562, part 1.
The pH-value of the formulation of the present invention should preferably in the range of 4.5 to 6.5, more preferably around 5.8±0.3. […] The pH value of the intranasal formulation can be adjusted during or after its preparation with a pharmaceutically acceptable acid or base. Most preferably, citric acid is used for this purpose.

[4] = rat, cited from earlier work
[5] = cited from earlier work
cilia = conditions: cited from earlier work

Compound: CCCN(CCc1cccs1)[C@H]1CCc2c(O)cccc2C1 [Rotigotine base, 5,6,7,8-tetrahydro-6-[propyl-[2-(2-thienyl)ethyl]amino]-1-naphthalenol]
- solubility (in words) [1]: practically insoluble
- decrease in the rotigotine concentration [2]: -0.07 mg/mL
- rotigotine uptake through nasal mucosa ([3]; formulation pH 4.5): significantly lower rotigotine uptake
- drug uptake through nasal mucosa ([3]; formulation pH 5.8): optimal drug uptake
- rotigotine uptake through nasal mucosa ([3]; formulation pH 6.5): significantly lower rotigotine uptake
- uptake of rotigotine through the nasal mucosa ([3]; glycerol in the formulation): increase the uptake
- bioavailability ([4]; buccal, nasal or rectal administration compared with oral dosing, solution in 1:1 PEG 400 and water): improved bioavailability
- bioavailability for the nasal dosing ([4]; compared with results described for other lipophilic drugs): somewhat disappointing

Compound: CN1CCc2cccc3c2[C@H]1Cc1ccc(O)c(O)c1-3 [apomorphine]
- oxidation in solution [5]: subject to rapid oxidation

Compound: benzalkonium chloride
- ciliary toxicity (cilia): significant ciliary toxicity

Source: patent US7683040B2, “Intranasal formulation of rotigotine” (SRZ Properties, Inc., priority 2003, dated 2010)
